Counter-ions that a name gives are not always drawn.
What was measured:
[1] = test system: patients with advanced recurrent or metastatic breast cancer; conditions: human, in vivo
Procedure: The study is a randomized, open-labeled, active controlled, single center study to evaluate the safety and efficacy of the mitoxantrone hydrochloride liposome injection in patients with advanced recurrent or metastatic breast cancer.
Investigational product: mitoxantrone hydrochloride liposome injection (PLM60 (10 mg/10 mL/vial)) was added to 250 mL of 5% glucose at a dose of 20 mg/m^2 and was administered intravenously over 1 h.
Reference product: mitoxantrone hydrochloride injection (5 mg/5 mL/vial, manufactured by Sichuan Sunnyhope Pharmaceutical, Inc., supplied by CSPC ZHONGQI Pharmaceutical Technology (Shijiazhuang) Co., Ltd., Lot No. 1501201) was added to 100 mL of 5% glucose injection at a dose of 14 mg/m^2 and was administered intravenously over 30 min.
The safety assessment indicators included: vital signs, adverse events, laboratory tests (complete blood test, routine urinalysis, blood biochemistry, electrocardiogram, echocardiogram), and early withdrawal. Safety assessment criteria: NCI-CTC 4.0.
For the drug mitoxantrone, the most serious adverse event is cardiotoxicity. Clinical studies and practical observations have shown that the cardiotoxicity caused by anthracyclines are mainly progressive and irreversible. Especially anthracyclines can easily cause cardiac damage at first use. Cardiotoxicity is a common concern for clinicians since it is a long-term cumulative dose-limiting toxicity. The incidence of increased troponin T and the incidence of increased brain natriuretic peptide were used as indices for examining cardiotoxicity in this trial. The change of the cardiac troponin T level can reflect myocardium damage with high sensitivity; brain natriuretic peptide is a polypeptide hormone secreted by cardiomyocytes in the heart ventricles in response to stretching caused by increased ventricular blood volume and increased ventricular pressure.

[2] = test system: patients with advanced recurrent or metastatic breast cancer; assay: Efficacy evaluation (RECIST 1.1) in randomized, open-labeled, active controlled clinical study; type: in vivo, human; parameters: disease control rate (PR+SD): concentration or dose not given beside the values
Procedure: A tumor assessment was performed at baseline.
During the treatment period, the efficacy evaluation was performed once every two cycles; in addition, when the efficacy evaluation result was PR or CR, the efficacy should be radiologically confirmed after 4 weeks. After the completion of the treatment, the evaluation was performed every 3 months until disease progression. Tumor evaluation was performed according to RECIST 1.1 criteria.
Primary efficacy endpoint: objective response rate (ORR), referring to the ratio of subjects reaching PR and CR.
Secondary efficacy endpoint: progression-free survival (PFS), referring to the time from the start of randomization to disease progression or death.

O=C1c2c(O)ccc(O)c2C(=O)c2c(NCCNCCO)ccc(NCCNCCO)c21 [Control group, mitoxantrone hydrochloride]
Anemia, number of subjects [1]: 14 | Decreased neutrophil count, number of subjects [1]: 29 | Decreased platelet count, number of subjects [1]: 16 | Decreased white blood cell count, number of subjects [1]: 29 | Fever, number of subjects [1]: 3 | Incidence of fever [1]: (10.0%) | Incidence of increased alanine aminotransferase [1]: (26.70%) | Incidence of increased blood bilirubin [1]: (20.00%) | Incidence of skin hyperpigmentation [1]: 3.3% | Increased alanine aminotransferase, number of subjects [1]: 8 | Increased aspartate aminotransferase, number of subjects [1]: 16 | Increased blood bilirubin, number of subjects [1]: 6 | Increased brain natriuretic peptide, number of subjects [1]: 10 | Increased conjugated bilirubin, number of subjects [1]: 17 | Increased troponin T, number of subjects [1]: 11 | overall incidence rate of adverse events [1]: 100% | Progression-free survival rate ([2]; 3 months, FAS (N = 60)): 26.7% | Progression-free survival rate ([2]; 3 months, PPS (N = 58)): 28.6 | Progression-free survival rate ([2]; 6 months, FAS (N = 60), hydrochloride): 20.0% | Progression-free survival rate ([2]; 6 months, FAS (N = 60), listed as control group, hydrochloride): 20% | Progression-free survival rate ([2]; 6 months, PPS (N = 58)): 21.4 | Progression-free survival rate ([2]; 12 months, FAS (N = 60)): 0% | Progression-free survival rate ([2]; 12 months, PPS (N = 58)): 0 | disease control rate (PR+SD) ([2]; 30 subjects per group): 30% | objective response rate (ORR) ([2]; 30 subjects per group): 6.7% | Best overall response NA, number of subjects ([2]; FAS (N = 60)): 2 | Best overall response NA, percent of subjects ([2]; FAS (N = 60)): (6.7%) | Best overall response PD, number of subjects ([2]; FAS (N = 60)): 19 | Best overall response PD, percent of subjects ([2]; FAS (N = 60)): (63.3%) | Best overall response PR, percent of subjects ([2]; FAS (N = 60)): (6.7%) | Best overall response SD, number of subjects ([2]; FAS (N = 60)): 7 | Best overall response SD, percent of subjects ([2]; FAS (N = 60)): (23.3%) | Median PFS ([2]; FAS (N = 60)): 1.86 month | Number of events (%) (PFS), percent ([2]; FAS (N = 60)): 83.3% | Number of events (PFS) ([2]; FAS (N = 60)): 25 | Best overall response PR, number of subjects ([2]; FAS (N = 60), liposome 20 mg/m^2 or injection 14 mg/m^2 i.v. once every 4 weeks): 2 | Best overall response NA, number of subjects ([2]; PPS (N = 58)): 0 | Best overall response NA, percent of subjects ([2]; PPS (N = 58)): (0.0) % | Best overall response PD, number of subjects ([2]; PPS (N = 58)): 19 | Best overall response PD, percent of subjects ([2]; PPS (N = 58)): (67.9%) | Best overall response PR, number of subjects ([2]; PPS (N = 58)): 2 | Best overall response PR, percent of subjects ([2]; PPS (N = 58)): (7.1%) | Best overall response SD, number of subjects ([2]; PPS (N = 58)): 7 | Best overall response SD, percent of subjects ([2]; PPS (N = 58)): (28.6%) | Median PFS ([2]; PPS (N = 58)): 1.86 month | Number of events (%) (PFS), percent ([2]; PPS (N = 58)): 82.14% | Number of events (PFS) ([2]; PPS (N = 58)): 23

Source: patent US20230078702A1, “USE OF MITOXANTRONE HYDROCHLORIDE LIPOSOME FOR TREATING BREAST CANCER” (CSPC ZHONGQI PHARMACEUTICAL TECHNOLOGY (SHIJIAZHUANG) CO., …, priority 2020, published 2023)
